{
  "source": "paper PMC4632086",
  "about": "“Effects and possible mechanisms of action of acacetin on the behavior and eye morphology of Drosophila models of Alzheimer’s disease” (Scientific Reports, 2015)",
  "key": {"[1]": {"target": "T1, recombinant human BACE-1 (Homo sapiens, UniProt P56817)", "T1 construct": "purchased R&D Systems (Minneapolis, MN, USA)", "T1 sequence (P56817 46-501)": "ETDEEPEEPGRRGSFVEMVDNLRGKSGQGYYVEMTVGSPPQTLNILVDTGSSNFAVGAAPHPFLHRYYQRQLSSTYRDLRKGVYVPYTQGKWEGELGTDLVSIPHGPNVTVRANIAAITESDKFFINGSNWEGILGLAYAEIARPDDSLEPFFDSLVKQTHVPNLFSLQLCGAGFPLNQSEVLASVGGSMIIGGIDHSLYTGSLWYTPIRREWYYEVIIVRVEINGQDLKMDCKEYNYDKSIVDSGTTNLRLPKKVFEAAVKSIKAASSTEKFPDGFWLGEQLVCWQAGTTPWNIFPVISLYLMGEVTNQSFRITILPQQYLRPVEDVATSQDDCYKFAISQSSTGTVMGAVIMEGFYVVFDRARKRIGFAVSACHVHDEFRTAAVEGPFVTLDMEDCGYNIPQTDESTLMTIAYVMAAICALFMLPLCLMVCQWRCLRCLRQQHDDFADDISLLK", "experiment": "FRET-based enzyme assay, BACE-1 inhibition", "format": "biochemical"}, "[2]": {"tested_on": "GMR < APP/BACE-1 flies", "experiment": "Light and scanning electron microscopy of adult compound eyes", "format": "in vivo, Drosophila melanogaster", "procedure": "GMR < APP/BACE-1 flies were cultured from the egg stage in polystyrene vials containing standard media supplemented with acacetin (100, 300, and 500 μM) in 0.1% DMSO, based on the preliminary test results. The controls received 0.1% DMSO only. […] The morphology of the compound eyes was observed using an EZ4 HD stereo microscope (×35) equipped with an Integrated 3.0 Mega-Pixel CMOS camera (Leica, Hicksville, NY, USA). The flies with aberrant eye phenotypes were collected, and the number of the flies with dark deposits in the eye was counted.\nFor SEM, the anesthetized male flies (30 days old) were attached to a copper mount using silver paint as a conducting adhesive, as described previously. They were then put directly into the viewing chamber of an SEM without prior coating, as described by Hartman and Hayes[76]. The external surface morphology of the compound eye was visualized using a Supra 55VP field-emission scanning electron microscope (Carl Zeiss, Jena, Germany) operated at 15 kV."}, "[3]": {"tested_on": "elav < APP/BACE-1 flies", "experiment": "Climbing assay (negative geotaxis)", "format": "in vivo, Drosophila melanogaster", "settings": "100, 300, and 500 μM, males", "procedure": "The climbing activity assay was performed, as described by Wang et al.[33] and Crowther et al.[34]. Groups of 20 male elav < APP/BACE-1 flies (1, 5, 10, and 15 days old), cultured in vials as stated previously, were separately placed in an empty vial conjoined with another vial on top, and manually tapped twice. After 20 s, the flies that climbed from the bottom and crossed the 9.5 cm line were counted, and the climbing index was determined as the number of flies that climbed to the top vial relative to the total number of test flies and expressed as a percentage. The controls received 0.1% DMSO. All trials were repeated five times using 20 males per replicate."}, "[4]": {"tested_on": "human BACE-1 mRNA", "experiment": "Real-time qRT-PCR, human BACE-1 mRNA in elav < APP/BACE-1 flies", "format": "in vivo, Drosophila melanogaster", "settings": "100, 300, and 500 μM; 20-day-old males", "procedure": "Real-time qRT-PCR with SYBR Green dye was performed to determine whether acacetin affected the expression levels of the human APP and BACE-1 mRNAs in the transgenic flies. The elav < APP/BACE-1 and elav < GFP flies were cultured from the egg stage in vials, as stated previously. The controls received 0.1% DMSO only. The total RNA was extracted from 30 heads (30 mg) of male elav < APP/BACE-1 and elav < GFP flies (20 days old) using the RNeasy Mini Kit (Qiagen, Hilden, Germany) according to the manufacturer’s instructions. The residual genomic DNA was removed using RQ1 RNase-Free DNase (Promega, Fitchburg, WI, USA), and 1 μg of the total RNA from each sample was used for complementary DNA (cDNA) synthesis with an oligo (dT) 12–18 primer (Invitrogen, Carlsbad, CA, USA) according to the protocol of the SuperScript III Reverse Transcriptase Kit. Real-time qRT-PCR was performed in 96-well plates using the StepOne Plus Real-Time PCR System (Applied Biosystems, Darmstadt, Germany). […] The mRNA expression levels of the target genes were normalized to the mRNA expression level of the housekeeping gene rp 49 that encodes the Drosophila ribosomal protein 49, and analyzed by the 2^–ΔΔCT method using the StepOne Software v2.3 and DataAssist Software (Applied Biosystems). The results are expressed as the means ± SEs of duplicate samples from three independent experiments."}, "[5]": {"tested_on": "APP-CTF", "experiment": "Western blot, APP-CTF in heads of elav < APP/BACE-1 flies", "format": "in vivo, Drosophila melanogaster", "settings": "100, 300, and 500 μM; 20-day-old males", "procedure": "The elav < APP/BACE-1 flies were cultured from the egg stage, as described previously. The lysates were obtained from the heads of 50 male flies (20 days old) by placing the heads in 100 μL RIPA buffer (pH 8.0) containing a 1% protease inhibitor cocktail. The controls received 0.1% DMSO. The lysates were centrifuged at 14,000 rpm for 30 min at 4 °C. The protein content of the supernatant was determined using a Bradford Protein Assay kit (Sigma-Aldrich) and BSA was used as the standard. The total proteins (30 μg/sample for APP and BACE-1 detection; 70 μg/sample for Aβ detection) were mixed with an equal volume of 5× sample buffer[81] containing 40 mM of DL-dithiothreitol, boiled for 10 min, and then loaded onto 8, 10, and 12% sodium dodecyl sulfate-polyacrylamide gels using a Mini-Protean 3 electrophoresis cell (Bio-Rad, Hercules, CA, USA) for APP, APP-CTF (APP-αCTF and APP-βCTF) and AICD, BACE-1, and Aβ detection, respectively. […] The differences in protein expression were quantified using a Molecular Imager Gel Doc XR system (Bio-Rad, Hercules, CA, USA) and normalized to actin expression on the same membrane. The results are expressed as the means ± SEs of duplicate samples from three independent experiments."}},
  "data": [
    {"smiles": "COc1ccc(-c2cc(=O)c3c(O)cc(O)cc3o2)cc1", "note": "[acacetin]", "values": [
      {"measurement": "fold more potent inhibitor of BACE-1 than maslinic acid", "setting": "[1]; based on IC50 values", "value": 5.5, "unit": "fold"},
      {"measurement": "fold more potent inhibitor of BACE-1 than oleanolic acid", "setting": "[1]; based on IC50 values", "value": 4.0, "unit": "fold"},
      {"measurement": "IC50", "setting": "[1]; pH 4.5, 1 h at 25 °C, read-out: IC50, μM (95% CL)", "value": 88.5, "unit": "µM"},
      {"measurement": "Slope ± SE", "setting": "[1]; slope of concentration-inhibition fit, listed as Natural acacetin", "value": "0.4 ± 0.04"},
      {"measurement": "ratio of female flies with dark deposits in the eyes", "setting": "[2]; 100, 300, and 500 μM in media, 1-day-old females, vehicle DMSO […]", "value": "6.3–8.0%"},
      {"measurement": "ratio of male flies with dark deposits in the eyes", "setting": "[2]; 100, 300, and 500 μM in media, 1-day-old males, vehicle DMSO 18.7%", "value": "5.0–7.0%"},
      {"measurement": "ommatidial fusion in the central side of the eyes", "setting": "[2]; 100, 300, and 500 μM, light microscopy, vs vehicle-fed flies", "value": "significantly suppressed ommatidial fusion"},
      {"measurement": "ommatidial fusion at the edges of the eyes", "setting": "[2]; 300 and 500 μM, light microscopy", "value": "ameliorated ommatidial fusion"},
      {"measurement": "climbing index", "setting": "[3]; 1 day postemergence, vehicle 47%", "value": "approximately 68%"},
      {"measurement": "climbing index", "setting": "[3]; 5 days postemergence, vehicle 39%", "value": "60–66%"},
      {"measurement": "climbing index", "setting": "[3]; 10 days postemergence, vehicle 36%", "value": "53–54%"},
      {"measurement": "climbing index", "setting": "[3]; 15 days postemergence, vehicle 11%", "value": "27–30%"},
      {"measurement": "human BACE-1 mRNA levels, % of the control levels", "setting": "[4]", "value": "82–89%"},
      {"measurement": "APP-CTF, % of the control levels", "setting": "[5]", "value": "approximately 80%"}
    ]}
  ]
}
